Entries after “also recorded” stand apart in the source; their conditions may differ.
Assays:
[1] = system: paclitaxel-induced mechanical allodynia; test: Paclitaxel-induced neuropathic pain model (von Frey); type: in vivo, mouse; conditions: intrathecal 10 nmol and 30 nmol, mice
Protocol: Intraperitoneal injection of paclitaxel (PTX, 2 mg/kg for multiple injections at day 0, 2, 4, and 6) was given to generate chemotherapy-associated neuropathic pain. Neuropathic pain behavior was tested 3 weeks after PTX injection using a von Frey test. Briefly, animals were habituated to the testing environment daily for at least 2 days before the baseline testing. Animals were confined in boxes placed on an elevated metal mesh floor and the hind paws were stimulated with a series of von Frey hairs with logarithmically increasing stiffness (0.02-2.56 g, Stoelting), presented perpendicularly to the central plantar surface. The 50% paw withdrawal threshold was determined by an up-down method.

[2] = system: neuropathic pain (CCI, SNI); test: Neuropathic pain models (CCI, SNI); type: in vivo, mouse; conditions: intrathecally at a dose of 30 mg/kg; CCI and SNI models
Protocol: Neuropathic pain is produced by chronic constriction injury (CCI) of the sciatic nerve. Mice are anesthetized with isoflurane, and three ligatures are 7-0 prolene placed around the nerve proximal to the trifurcation (1 mm between ligatures). The ligatures are loosely tied until a short flick of the ipsilateral hind limb is observed (Chen, Ji, et al. 2015; J Clin. Invest. 125(8):3226-3240).
SNI model. Neuropathic pain is produced by spared nerve injury (SNI). SNI surgery is conducted with a 5.0 silk tight ligation of the tibial and common peroneal nerves followed by transection and removal of a 3-5 mm nerve portion.
Animals in the neuropathic pain models are dosed with N-substituted indoles according to the present disclosure [N-(methylsulfonyl)-3-(3-oxo-1-(3-phenoxyphenyl)-3-((2-(pyrrolidin-1-yl)ethyl)amino)propyl)-1H-indole-1-carboxamide (10); (Z)-N-(5-((3-(3-oxo-1-(3-phenoxyphenyl)-3-((2-(pyrrolidin-1-yl)ethyl)amino)propyl)-1H-indol-1-yl)sulfonyl)-1,3,4-thiadiazol-2-yl)acetimidic acid (11); and 3-(3-phenoxyphenyl)-N-(2-(pyrrolidin-1-yl)ethyl)-3-(1-(thiazol-2-ylsulfonyl)-1H-indol-3-yl)propanamide (12)]. The compounds are synthesized according to the route outlined in Scheme 1 and are administered intrathecally at a dose of 30 mg/kg.

acute and chronic itch = test: Itch models (acute, dry skin, allergic contact dermatitis); type: in vivo, mouse; conditions: intrathecally at a dose of 30 mg/kg, dry skin and ACD itch models
Protocol: Mice are habituated to the testing environment daily for at least two days before analysis. Mice are shaved at the back of the neck the day before injection. Mice are left in small plastic chambers (14×18×12 cm) on an elevated metal mesh floor and allowed 30 min for habituation before examination. To elicit acute itch, pruritic agent 48/80 or chloroquine are injected intradermally in the nape of the neck and the number of scratched are counted every 5 min for 30 min after the injection. A scratch is counted when a mouse lifts its hindpaw to scratch the shaved region and returns the paw to the floor or to the mouth for the licking (Liu, et al. 2012; J Cin. Invest. 122(6):2195-2207).
To induce chronic itch, the neck skin is painted with acetone and diethyl ether (1:1) followed by water twice a day for 4 days, and spontaneous itch is examined by counting the number of scratches for 60 minutes on day 5. (Liu, et al. 2012, supra).
Chronic itch is induced by applying the hapten 1-fluoro-2,4-dinitrobenzene (DNFB) onto the back skin. (Liu, Ji, et al. 2016; Pain. 157(4):806-817; Zhao, et al. 2013; J Clin. Invest. 123(11):4769-4780). DNFB is dissolved in a mixture of acetone:olive oil (4:1) for sensitization and challenge. One day before sensitization, the surface of the abdomen and the nape of the neck are shaved. Mice are sensitized with 0.5% DNFB solution (50 μL) by topical application to a ˜2 cm^2 area of abdomen skin. Five days later, mice are challenged with 0.2% DNFB solution (30 μL) by painting the shave neck area, then every other day for one week. Spontaneous scratching behaviors are videoed for 1 hour, at 24 hours after each challenge. The behavioral tests of itch are performed blindly.
Animals in the itch models are dosed with N-substituted indoles 10, 11, and 12, which are administered intrathecally at a dose of 30 mg/kg.

human Nav1.7 = human Nav1.7 (Homo sapiens, UniProt Q15858); test: Whole-cell patch-clamp of sodium currents in Nav1.7-expressing HEK293 cells; type: cell-based; conditions: 10 μM, screen of compounds 1-9 (FIG. 3)
Protocol: HEK-hNav1.7 stable cell line was purchased from SB Drug Discovery (Glasgow, United Kingdom). Human embryonic kidney 293 (HEK293) cells were obtained from the ATCC and maintained at the Duke cell culture facility. Cells were cultured in high-glucose (4.5 g/L) DMEM containing 10% (v/v) FBS (Gibco) and streptomycin/penicillin. For Nav1.7-expressing HEK293 cells, an additional antibiotic, blasticidin, was included. hNav1.5 transfection was performed by Lipofectamine 2000 at 70% confluence using 2 μg cDNA. The transfected cells were cultured in the same growth medium for 48 h before biochemical or electrophysiological studies.
Whole-cell patch-clamp recordings were conducted at room temperature. Patch pipettes pulled from borosilicate capillaries (World Precision Instruments, Inc., Sarasota, FL) were used to record transient Na currents with an Axopatch-200B amplifier with a Digidata 1440A (Axon Instruments, Sunnyvale CA). The resistance was set to 3-4 MΩ when filled with pipette solution. The pipette solution contained (in mmol/L): CsCl 130, NaCl 9, MgCl2 1, EGTA 10, HEPES 10, adjusted to pH 7.3 with CsOH. The external solution for recording transient Na^+ currents contained (in mmol/L): NaCl 131, TEACl 10, CsCl 10, CaCl2) 1, MgCl2 2, CdCl2 0.3, 4-aminopyridine 3, HEPES 10, glucose 10, adjusted to pH 7.4 with NaOH. The recording chamber (300 μL) was continuously superfused at 3-4 mL/min. Series resistance was compensated (>80%) and leak subtraction was performed. Data were low-pass-filtered at 2 kHz and sampled at 10 kHz. pClamp10 (Axon Instruments) software was used during experiments and analysis. In voltage-clamp experiments, transient Na+ currents were evoked by a test pulse to 0 mV from the holding potential (−70 mV).
The effects of the 9 selected compounds on Nav1.7 channel activities were tested using patch-clamp recordings on human Nav1.7 expressing HEK293 cells (FIG. 3, FIG. 4). In each cell, sodium currents were recorded for 13 min, and candidate inhibitors (10 μM) were incubated for 2 min after 2 min baseline recording (FIG. 3). Compound was applied at the beginning of the second minute for two minutes (denoted as a horizontal line above the X-axis). Sodium currents were recorded at equal intervals (every 20 seconds, 40 recordings per compound per cell). Data was analyzed with a two-way repeated measures ANOVA, followed by a post-hoc test of the last timepoint Bonferroni-corrected for 9 pairwise comparisons (each compound was compared with control). […] Sample size n=3 to 7 cells per group.
For FIG. 4C, sample size was n=5 to 7 cells per group. Compound was applied at the beginning of the second minute for two minutes (denoted as a horizontal line above the X-axis). Sodium currents were recorded every 20 seconds.

Sequence of human Nav1.7 (Q15858 whole entry): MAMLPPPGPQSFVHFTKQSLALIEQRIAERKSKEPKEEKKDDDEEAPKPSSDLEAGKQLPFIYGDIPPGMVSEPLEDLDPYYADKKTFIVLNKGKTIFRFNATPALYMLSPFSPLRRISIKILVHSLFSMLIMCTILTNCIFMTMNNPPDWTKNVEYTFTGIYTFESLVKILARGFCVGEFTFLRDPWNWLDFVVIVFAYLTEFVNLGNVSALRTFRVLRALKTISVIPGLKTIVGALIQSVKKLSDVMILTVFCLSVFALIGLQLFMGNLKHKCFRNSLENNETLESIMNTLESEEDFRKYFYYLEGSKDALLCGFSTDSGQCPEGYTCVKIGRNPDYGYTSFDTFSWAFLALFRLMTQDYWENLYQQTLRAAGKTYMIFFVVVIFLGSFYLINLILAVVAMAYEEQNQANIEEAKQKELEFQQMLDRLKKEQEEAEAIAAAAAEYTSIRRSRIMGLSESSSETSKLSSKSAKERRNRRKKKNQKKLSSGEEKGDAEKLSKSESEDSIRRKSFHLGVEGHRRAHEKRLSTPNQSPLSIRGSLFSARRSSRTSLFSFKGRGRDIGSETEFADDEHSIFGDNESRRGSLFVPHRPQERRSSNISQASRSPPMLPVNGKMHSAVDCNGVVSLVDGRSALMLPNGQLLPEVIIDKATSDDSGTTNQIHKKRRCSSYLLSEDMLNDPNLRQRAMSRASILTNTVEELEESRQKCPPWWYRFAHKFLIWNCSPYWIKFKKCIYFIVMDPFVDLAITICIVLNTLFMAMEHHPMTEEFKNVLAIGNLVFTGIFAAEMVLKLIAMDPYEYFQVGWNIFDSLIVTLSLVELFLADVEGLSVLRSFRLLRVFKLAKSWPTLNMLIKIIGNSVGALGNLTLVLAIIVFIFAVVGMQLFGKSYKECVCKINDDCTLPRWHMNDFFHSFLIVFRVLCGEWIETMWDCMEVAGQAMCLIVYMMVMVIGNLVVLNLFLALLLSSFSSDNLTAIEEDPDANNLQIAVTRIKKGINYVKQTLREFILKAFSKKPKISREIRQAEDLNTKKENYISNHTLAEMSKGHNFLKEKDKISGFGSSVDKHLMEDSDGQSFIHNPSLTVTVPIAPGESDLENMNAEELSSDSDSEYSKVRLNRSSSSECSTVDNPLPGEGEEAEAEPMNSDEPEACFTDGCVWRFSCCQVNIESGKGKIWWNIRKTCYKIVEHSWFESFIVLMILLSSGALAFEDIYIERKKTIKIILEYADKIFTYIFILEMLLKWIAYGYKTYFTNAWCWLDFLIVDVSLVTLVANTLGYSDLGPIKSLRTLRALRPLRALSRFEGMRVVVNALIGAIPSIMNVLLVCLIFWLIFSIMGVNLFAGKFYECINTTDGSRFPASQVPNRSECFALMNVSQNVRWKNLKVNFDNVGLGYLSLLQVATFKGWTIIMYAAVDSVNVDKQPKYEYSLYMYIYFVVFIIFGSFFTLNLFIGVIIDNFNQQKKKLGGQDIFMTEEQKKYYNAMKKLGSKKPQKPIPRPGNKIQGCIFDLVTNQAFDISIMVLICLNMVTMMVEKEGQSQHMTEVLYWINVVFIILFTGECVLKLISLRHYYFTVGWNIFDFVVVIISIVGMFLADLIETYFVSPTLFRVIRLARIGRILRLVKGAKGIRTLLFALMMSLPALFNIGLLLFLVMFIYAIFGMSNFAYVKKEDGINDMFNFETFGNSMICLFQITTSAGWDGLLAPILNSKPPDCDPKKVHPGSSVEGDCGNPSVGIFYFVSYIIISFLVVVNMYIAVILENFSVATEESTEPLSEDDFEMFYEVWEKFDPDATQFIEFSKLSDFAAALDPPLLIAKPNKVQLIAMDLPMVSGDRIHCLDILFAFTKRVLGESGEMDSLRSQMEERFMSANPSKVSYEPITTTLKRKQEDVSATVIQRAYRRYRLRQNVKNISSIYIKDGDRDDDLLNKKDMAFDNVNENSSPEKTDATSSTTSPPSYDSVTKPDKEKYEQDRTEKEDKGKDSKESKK

Row | Structure (SMILES) | anti-allodynic effect in the paclitaxel model [1] | reduction of pain in neuropathic pain models [2] | reduction of scratching in itch models (acute and chronic itch) | difference in relative current from the control group at the last measurement (human Nav1.7)
1 | Nc1[nH]ncc1-c1cc(Cl)ccc1Oc1cc(F)c(S(=O)(=O)Nc2cscn2)cc1Cl [PF-05089771, reference compound] | failed to produce any anti-allodynic effect; also recorded: did not produce anti-allodynia effects |  |  | 
2 | O=C(CC(c1cccc(Oc2ccccc2)c1)c1cn(S(=O)(=O)c2nccs2)c2ccccc12)NCCN1CCCC1 (stereo not shown) [Compound 12, 3-(3-phenoxyphenyl)-N-(2-(pyrrolidin-1-yl)ethyl)-3-(1-(thiazol-2-ylsulfonyl)-1H-indol-3-yl)propanamide] |  | Reduction of pain is observed | Reduction of scratching is observed | 
3 | Cc1ccc(Cn2cc(C(CC(=O)NCc3ccncc3)c3cccc(Oc4ccc(Cl)cc4)c3)c3ccccc32)cc1 (stereo not shown) [Compound 5] |  |  |  | 0.29
4 | COc1ccc(Cn2cc(C(CC(=O)NCc3ccco3)c3cccc(Oc4ccccc4)c3)c3ccccc32)cc1 (stereo not shown) [Compound 8] |  |  |  | 0.36
5 | CS(=O)(=O)NC(=O)n1cc(C(CC(=O)NCCN2CCCC2)c2cccc(Oc3ccccc3)c2)c2ccccc21 (stereo not shown) [Compound 10, N-(methylsulfonyl)-3-(3-oxo-1-(3-phenoxyphenyl)-3-((2-(pyrrolidin-1-yl)ethyl)amino)propyl)-1H-indole-1-carboxamide] |  | Reduction of pain is observed | Reduction of scratching is observed | 
6 | COc1ccc(Cn2cc(C(CC(=O)NCc3ccccc3)c3cccc(OCc4ccccc4)c3)c3ccccc32)cc1 (stereo not shown) [Compound 7] |  |  |  | 0.35
7 | CC(=O)Nc1nnc(S(=O)(=O)n2cc(C(CC(=O)NCCN3CCCC3)c3cccc(Oc4ccccc4)c3)c3ccccc32)s1 (stereo not shown) [Compound 11, (Z)-N-(5-((3-(3-oxo-1-(3-phenoxyphenyl)-3-((2-(pyrrolidin-1-yl)ethyl)amino)propyl)-1H-indol-1-yl)sulfonyl)-1,3,4-thiadiazol-2-yl)acetimidic acid] |  | Reduction of pain is observed | Reduction of scratching is observed | 
